Series [1] is described as follows: Log P (n-octanol/water) of perfuming compounds (Tables 4 to 10).
Series [2] can be described thus: Volatility of perfuming compounds (Tables 4 to 10), with top/middle/bottom note type. Format: physicochemical. In outline: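 Note type follows from air volatility (μg/l): bottom 49–0.1, middle 99–50, top 70,000–100. Compounds are listed within watery, green, fruity, citrus, sweet, gourmand and woody families.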
Series [3] is described as follows: Odor threshold and odor value of perfuming compounds (Tables 4 to 10). To be noted: for Odor Threshold (μg/l air): perfuming compounds having a green note.
Where [4] appears, read: Table 6, perfuming compounds having a fruity note.
Setting [5] is: Table 6, perfuming compounds having a fruity note, note type by volatility.
The mark [6] stands for this setting: Table 9, perfuming compounds having a gourmand note, note type by volatility.
Setting [7] is: n-octanol/water, perfuming compounds having a green note.
[8] abbreviates: note type (Top/Middle/Bottom) by volatility, perfuming compounds having a green note.
[9] abbreviates: perfuming compounds having a green note.
Setting [10] is: Table 10, perfuming compounds having a woody note, note type by volatility.
The mark [11] stands for this setting: Table 8, perfuming compounds having a sweet note.
Where [12] appears, read: Table 8, perfuming compounds having a sweet note, note type by volatility.

For the compound `CCCCC1CCC(=O)O1` (racemic) [(+−)-4-OCTANOLIDE], the “Log P (n-octanol/water)” value in series [1] (setting [4]) was found to be 1.80; in series [1] (Table 9, gourmand note), 1.80. In addition, the Volatility is reported as 108.41 μg/l air in series [2] (setting [4]) and 108.41 μg/l air in series [2] (Table 9, gourmand note). The figures for the Type result in series [2] (setting [5]) and in series [2] (setting [6]) were “TOP (perfuming compounds having a volatility ranging from 70,000 to 100 μg/l in air are referred to as “top notes”)” and “Top”, respectively. In addition, the “Odor Threshold” value in series [3] (setting [4]) amounted to 2.32E−05 μg/l air; in series [3] (Table 9, gourmand note), 2.32E−05 μg/l air. Moreover, the “Odor Value” in series [3] (setting [4]) worked out at 4.67E+06.
Consider `CCCC(C)COC(=O)C(C)CCC` (stereo not shown) [2-METHYLPENTYL 2-METHYLPENTANOATE], for which the “Log P (n-octanol/water)” value in series [1] (setting [4]) and in series [1] (setting [7]) was 5.13 in each case. This compound gave a Volatility in series [2] (setting [4]) of 450.33 μg/l air. For the same compound, the Type entry is “TOP (perfuming compounds having a volatility ranging from 70,000 to 100 μg/l in air are referred to as “top notes”)” in series [2] (setting [5]) and “Top” in series [2] (setting [8]). In addition, the “Volatility (μg/l air)” value in series [2] (setting [9]) was 450.33 μg/l air. Also, the “Odor Threshold (μg/l air)” value in series [3] is listed as 2.41E−01 μg/l air.
As to `C=C(C)[C@@H]1CC=C(CO)CC1`, the “Log P (n-octanol/water)” value in series [1] (setting [7]) came out at 2.68. The Type entry in series [2] (setting [8]) is “Bottom”. The “Volatility (μg/l air)” value in series [2] (setting [9]) was 33.78 μg/l air. In addition, the “Odor Threshold (μg/l air)” value in series [3] stood at 2.07E−02 μg/l air.
For `CCCOC(C)OCCc1ccccc1` (stereo not shown) [1-PHENYL-2-(1-PROPOXYETHOXY)ETHANE], in series [1] (setting [7]), the “Log P (n-octanol/water)” value came out at 3.58. Besides, the Type entry in series [2] (setting [8]) is “Middle”. Also, the “Volatility (μg/l air)” value in series [2] (setting [9]) worked out at 59.63 μg/l air. The “Odor Threshold (μg/l air)” value in series [3] is 1.52E−03 μg/l air.
As for `C/C=C/C(=O)C1=C(C)C=CCC1(C)C`, the “Log P (n-octanol/water)” value in series [1] (setting [4]) is 3.33; in series [1] (Table 10, woody note), 3.33. Besides, in series [2] (setting [10]), the Type result is recorded as “Middle”. This compound also yielded a Volatility in series [2] (Table 10, woody note) of 91.38 μg/l air. In addition, in series [3] (Table 10, woody note), the “Odor Threshold” value is 3.00E−06 μg/l air.
On to `CCC(C)C1(C)COC(C2CCC(C)=CC2C)OC1` (stereo not shown), for which, in series [1] (Table 10, woody note), the “Log P (n-octanol/water)” value is listed as 6.50. Moreover, the Type entry in series [2] (setting [10]) is reported as “Bottom”. In series [2] (Table 10, woody note), this compound had a Volatility of 3.82 μg/l air. The “Odor Threshold” value in series [3] (Table 10, woody note) turned out to be 1.67E−03 μg/l air.
Consider `CC(CC=O)c1ccccc1` (racemic) [(+−)-3-PHENYLBUTANAL], for which the “Log P (n-octanol/water)” value in series [1] (setting [7]) was 2.34. In addition, in series [2] (setting [8]), the Type entry is “Top”. The “Volatility (μg/l air)” value in series [2] (setting [9]) is 227.83 μg/l air. The “Odor Threshold (μg/l air)” value in series [3] was 3.89E−04 μg/l air.
`N#C/C=C/c1ccccc1` [(E)-3-PHENYL-2-PROPENENITRILE]: the “Log P (n-octanol/water)” value in series [1] (Table 10, woody note) turned out to be 1.98. The Type entry in series [2] (setting [10]) was “Middle”. The same compound gave a Volatility in series [2] (Table 10, woody note) of 66.00 μg/l air. In series [3] (Table 10, woody note), the “Odor Threshold” value was 8.97E−05 μg/l air.
With `CCCC=C1OC(=O)c2ccccc21` [3-BUTYLIDENE-1-BENZO[C]FURANONE], the “Log P (n-octanol/water)” value is 3.12 in series [1] (setting [11]) and 3.12 in series [1] (Table 9, gourmand note). The Volatility in series [2] (setting [11]) is 14.37 μg/l air; in series [2] (Table 9, gourmand note), 14.37 μg/l air. For the same compound, the Type result in series [2] (setting [12]) and in series [2] (setting [6]) was “Bottom” throughout. Besides, the “Odor Threshold” value in series [3] (setting [11]) was 8.65E−04 μg/l air; in series [3] (Table 9, gourmand note) it was 8.65E−04 μg/l air. In addition, the “Odor Value” in series [3] (setting [11]) amounted to 1.66E+04.
Consider `CC(=O)CCC=C(C)C` [6-METHYL-5-HEPTEN-2-ONE], for which the “Log P (n-octanol/water)” value in series [1] (setting [4]) and in series [1] (setting [7]) was 2.05 in each case. In addition, the Volatility in series [2] (setting [4]) is 5775.94 μg/l air. Further, the Type entry in series [2] (setting [5]) was “TOP (perfuming compounds having a volatility ranging from 70,000 to 100 μg/l in air are referred to as “top notes”)”; in series [2] (setting [8]), “Top”. Besides, the “Volatility (μg/l air)” value in series [2] (setting [9]) is listed as 5775.94 μg/l air. Also, in series [3], the “Odor Threshold (μg/l air)” value is on record as 1.06E−01 μg/l air.
`CC(=O)CCc1ccccc1` [4-PHENYL-2-BUTANONE]: the “Log P (n-octanol/water)” value in series [1] (setting [4]) and in series [1] (setting [7]) was 1.79 throughout. Moreover, the Volatility in series [2] (setting [4]) was 176.55 μg/l air. Moreover, the Type entry in series [2] (setting [5]) is “TOP (perfuming compounds having a volatility ranging from 70,000 to 100 μg/l in air are referred to as “top notes”)”; in series [2] (setting [8]), “Top”. In addition, the “Volatility (μg/l air)” value in series [2] (setting [9]) is 176.55 μg/l air. Besides, in series [3], the “Odor Threshold (μg/l air)” value was 2.22E−04 μg/l air.
Turning to `CC(=O)C(C)O` (racemic) [(+−)-3-HYDROXY-2-BUTANONE], the “Log P (n-octanol/water)” value in series [1] (setting [11]) is −1.03; in series [1] (Table 9, gourmand note) it was −1.03; in series [1] (setting [7]), −1.03. Further, the Volatility in series [2] (setting [11]) is given as 33382.87 μg/l air; in series [2] (Table 9, gourmand note) it was 33382.87 μg/l air. Besides, the Type result in series [2] (setting [12]), in series [2] (setting [6]) and in series [2] (setting [8]) was “Top” each time. Moreover, the “Volatility (μg/l air)” value in series [2] (setting [9]) was found to be 33382.87 μg/l air. For the same compound, the “Odor Threshold” value came out at 1.46E−02 μg/l air in series [3] (setting [11]) and 1.46E−02 μg/l air in series [3] (Table 9, gourmand note). Further, the “Odor Value” in series [3] (setting [11]) is 2.28E+06. Besides, in series [3], the “Odor Threshold (μg/l air)” value is 1.46E−02 μg/l air.
`COCCc1ccccc1` [(2-METHOXYETHYL)BENZENE]: the “Log P (n-octanol/water)” value in series [1] (setting [7]) is 2.33. In series [2] (setting [8]), the Type result was “Top”. In addition, in series [2] (setting [9]), the “Volatility (μg/l air)” value is listed as 1239.07 μg/l air. For the same compound, the “Odor Threshold (μg/l air)” value in series [3] is listed as 6.32E−04 μg/l air.
`COc1ccc(C=O)cc1` [4-METHOXYBENZALDEHYDE]: in series [1] (setting [7]), the “Log P (n-octanol/water)” value amounted to 1.56. The Type result in series [2] (setting [8]) is listed as “Middle”. Further, the “Volatility (μg/l air)” value in series [2] (setting [9]) worked out at 98.47 μg/l air. For the same compound, the “Odor Threshold (μg/l air)” value in series [3] was 1.81E−05 μg/l air.
For `COC(Cc1ccccc1)OC` [(2,2-DIMETHOXYETHYL)BENZENE], in that order: 2.10, “Top”, 456.97 μg/l air and 4.55E−02 μg/l air.
Regarding `CC(=O)CCc1ccc(O)cc1` [4-(4-HYDROXY-1-PHENYL)-2-BUTANONE], the “Log P (n-octanol/water)” value in series [1] (setting [4]) is listed as 0.93. Besides, the Volatility in series [2] (setting [4]) was found to be 0.36 μg/l air. The Type result in series [2] (setting [5]) is reported as “Bottom”. Moreover, in series [3] (setting [4]), the “Odor Threshold” value was 2.05E−07 μg/l air and the “Odor Value” came to 1.75E+06.
